From patent publication US20070116800A1, “Chewing Gum with High-Potency Sweetener” (The Coca-Cola Company, priority 2005, published 2007)

Assays:
[1] = Rate of dissolution in H2O at 25° C. of rebaudioside A polymorph and amorphous forms; assay type: physicochemical
[2] = assay type: physicochemical
Protocol: A solution of rebaudioside A (>97% pure by HPLC ) was prepared in double distilled water (12.5 gm in 50 mL, 25% concentration) by stirring the mixture at 40° C. for 5 minutes. An amorphous form of_rebaudioside A was formed by immediately using the clear solution for spray drying with the Lab-Plant spray drier SD-04 instrument (Lab-Plant Ltd., West Yorkshire, U.K.). The solution was fed through the feed pump into the nozzle atomizer which atomized it into a spray of droplets with the help of a constant flow of nitrogen/air. […] This dry powder (11-12 g, H2O 6.74%) was discharged continuously from the drying chamber and was collected in a bottle.

rebaudioside A [Form 1]
Rate of dissolution in H2O at 25° C. (grade in words) [1]: Very low | Rate of dissolution in H2O at 25° C. ([1]; 60 minutes): (<0.2%/60 %/60 minutes

rebaudioside A [Form 2]
Rate of dissolution in H2O at 25° C. (grade in words) [1]: Intermediate | Rate of dissolution in H2O at 25° C. ([1]; 5 minutes): (<30%/5 %/5 minutes

rebaudioside A [Form 3]
Rate of dissolution in H2O at 25° C. (grade in words) [1]: High | Rate of dissolution in H2O at 25° C. ([1]; 5 minutes): (>30%/5 %/5 minutes

rebaudioside A [Form 4]
Rate of dissolution in H2O at 25° C. (grade in words) [1]: High | Rate of dissolution in H2O at 25° C. ([1]; 5 minutes): (>35.0%/5 %/5 minutes | solubility in water [2]: > 35.0%
